{"source": "patent US20210002725A1", "about": "“METHODS FOR THE DIAGNOSIS OF METABOLIC DISORDERS USING EPIMETABOLIC SHIFTERS, MULTIDIMENSIONAL INTRACELLULAR MOLECULES, OR ENVIRONMENTAL INFLUENCES” (Berg LLC, priority 2009, published 2021)", "key": {"[1]": {"system": "Pyruvate Kinase M2 (PKM2)", "experiment": "Western blot of Pyruvate Kinase M2 levels in cells treated with Coenzyme Q10", "assay_type": "cell-based, human", "procedure": "The samples were processed and run on a 4-12% Bis-Tris Novex NuPAGE gel as described above. The gels were run, transferred and stained essentially as described above.\nThe lactate dehydrogenase blots were stripped by incubating for 30 minutes with methanol, followed by two 10 minute washes with TBS-T, then 30 minutes of incubation with Stripping buffer at 50 deg C., and followed by two washes with 100 ml or more of TBS-T for 30′ each. The 2 blots were scanned in laser scanner to check for complete stripping. The blots were activated with methanol for 5 seconds, washed with water for 5 minutes, and TBST for 15 minutes. The blots were blocked for 1 hour with 5% blocking reagent in TBS-T at room temperature and then washed 3 times with TBS-T (1×-15′; 2×5′ each) and probed with the rabbit polyclonal antibody for Pyruvate Kinase M2 in 5% BSA (NOVUS BIOLOGICALS catalog #H00005315-D01P) at 1:500 dilution overnight at 4 deg C with shaking. After the overnight incubation with primary antibody for Pyruvate Kinase M2, the membranes were washed 3 times with TBS-T (1×-15′; 2×5′ each) and probed with the secondary antibody (antirabbit; 1:10,000 dilution) for 1 h on the orbital tilting shaker at room temperature. After 1 h of incubation with secondary antibodies, the blots were washed 3 times with TBS-T (1×-15′; 2×5′ each) and then incubated with ECF reagent for 5 minutes and then each blot scanned with 5100 Fuji Laser scanner at 25 uM resolution, 16 bit, green laser, at 400V and at 500 V.\nThe HASMC samples were processed and the gels were run, transferred, stained and scanned essentially as described above.\nThe above blots were stripped by incubating for 30 minutes with methanol, followed by two 10 minute washes with TBS-T, then 30 minutes of incubation with Stripping buffer at 50 deg C., and followed by two washes with 100 ml or more of TBS-T for 30′ each. The blots were scanned in laser scanner to check for complete stripping. The blots were activated with methanol for 5 seconds, washed with water for 5 minutes, and TBST for 15 minutes. The blots were blocked for 1 hour with 5% blocking reagent in TBS-T at room temperature and then washed 3 times with TBS-T (1×-15′; 2×5′ each) and probed with the primary antibody for PKM2, SDHB or SDHC in 5% BSA in TBS-T by incubation overnight at 4 deg C. with gentle shaking. The primary antibody for SDHC (ABNOVA H00006391-M02; antimouse) was at 1:500 dilution. The primary antibody for SDHB was from Abcam ab4714-200; antimouse; at 1:1000 dilution. The primary antibody for Pyruvate Kinase M2 (PKM2) was from Novus Biologicals H00005315-DOIP; antirabbit; at 1:500 dilution. After incubation with primary antibodies, the membranes were washed 3 times with TBS-T (1×-15′; 2×5′ each) and probed with the secondary antibody (SDHB & C antimouse; and PKM2 antirabbit; 1:10,000 dilution) for 1 hon the orbital tilting shaker at room temperature. After 1 h of incubation, the blots were washed 3 times with TBS-T (1×-15′; 2×5′ each) and incubated with ECF reagent for 5 minutes and then each blot scanned with 5100 Fuji Laser scanner at 25 uM resolution, 16 bit, green laser, at 400V and at 500 V."}, "HASMC cells": {"system": "HASMC cells", "experiment": "Mitochondria PCR arrays in cell model for diabetes", "assay_type": "cell-based, human", "conditions": "HASMC-(H) 22 mM glucose", "procedure": "(§1) The HK-2 and HASMC cells are normally maintained in culture at 5.5 mM glucose, which is a concentration that corresponds to a range considered normal in human blood. However, in order to simulate a diabetic environment, both cell lines were subsequently maintained at 22 mM glucose, which corresponds to the range observed in human blood associated with chronic hyperglycemia. The cells were subsequently allowed to propagate over 3 passages so that the intracellular regulation processes were functionally adapted to mimic a diabetic state. The choice of cell line was based on the physiologic influence of diabetes on renal dysfunction and progression to end-stage renal disease (ESRD) in addition to the progressive pathophysiology of a compromised cardiovascular function.\n(§2) Differential expression of mitochondrial genes in diabetes was assayed using the mitochondria arrays (Cat#PAHS 087E, SABisociences Frederick Md.)."}, "HK-2 cells": {"system": "HK-2 cells", "experiment": "Mitochondria PCR arrays in cell model for diabetes", "assay_type": "cell-based, human", "conditions": "HK-2(H) 22 mM glucose", "procedure": "as §1, §2"}}, "note": "Entries after “also recorded” stand apart in the source; their conditions may differ."}
{"compound": "COC1=C(OC)C(=O)C(C/C=C(\\C)CC/C=C(\\C)CC/C=C(\\C)CC/C=C(\\C)CC/C=C(\\C)CC/C=C(\\C)CC/C=C(\\C)CC/C=C(\\C)CC/C=C(\\C)CCC=C(C)C)=C(C)C1=O", "note": "[Q10, Coenzyme Q10]", "values": [{"measurement": "Response at later time points (19, 48 hr)", "setting": "SK-MEL-28 mitochondria; 100 μM Q10", "result": "drops more for 19; also recorded: back to normal at 48; also recorded: Up at 19 and 48 hr; also recorded: Up only at 19 hr; also recorded: drop to low levels"}, {"measurement": "Response (direction) at 6 hr", "setting": "SK-MEL-28 mitochondria; 100 μM Q10, 6 hr", "result": "Down and Up"}, {"measurement": "PKM2 Upper Band Normalized Intensity", "setting": "[1]; HASMC, 5 g, 48 h, 50 μM", "result": 811}, {"measurement": "PKM2 Upper Band Normalized Intensity", "setting": "[1]; HASMC, 5 g, 48 h, 100 μM", "result": 611}, {"measurement": "PKM2 Upper Band Normalized Intensity", "setting": "[1]; HASMC, 22 G, 24 h, 50 μM", "result": 477}, {"measurement": "PKM2 Upper Band Normalized Intensity", "setting": "[1]; HASMC, 22 G, 24 h, 100 μM", "result": 701}, {"measurement": "PKM2 Upper Band Normalized Intensity", "setting": "[1]; HASMC, 22 G, 48 h, 50 μM", "result": 595}, {"measurement": "PKM2 Upper Band Normalized Intensity", "setting": "[1]; HASMC, 22 G, 48 h, 100 μM", "result": 496}, {"measurement": "PKM2 Upper Band Normalized Volume", "setting": "[1]; HepG2, 5 g, 24 h, 50 μM", "result": 29269}, {"measurement": "PKM2 Upper Band Normalized Volume", "setting": "[1]; HepG2, 5 g, 24 h, 100 μM", "result": 18307}, {"measurement": "PKM2 Upper Band Normalized Intensity", "setting": "[1]; HepG2, 5 g, 48 h, 50 μM", "result": 303}, {"measurement": "PKM2 Upper Band Normalized Intensity", "setting": "[1]; HepG2, 5 g, 48 h, 100 μM", "result": 354}, {"measurement": "PKM2 Upper Band Normalized Volume", "setting": "[1]; HepG2, 22 G, 24 h, 50 μM", "result": 22294}, {"measurement": "PKM2 Upper Band Normalized Volume", "setting": "[1]; HepG2, 22 G, 24 h, 100 μM", "result": 19560}, {"measurement": "PKM2 Upper Band Normalized Intensity", "setting": "[1]; HepG2, 22 G, 48 h, 50 μM", "result": 562}, {"measurement": "PKM2 Upper Band Normalized Intensity", "setting": "[1]; HepG2, 22 G, 48 h, 100 μM", "result": 601}, {"measurement": "BCL2L1 gene regulation (mitochondria array)", "setting": "HASMC cells; 50 uM Coenzyme Q10", "result": "−2.7863"}, {"measurement": "MFN1 gene regulation (mitochondria array)", "setting": "HASMC cells; 50 uM Coenzyme Q10", "result": "−1.2585"}, {"measurement": "PMAIP1 gene regulation (mitochondria array)", "setting": "HASMC cells; 50 uM Coenzyme Q10", "result": "−6.8132"}, {"measurement": "SLC25A1 gene regulation (mitochondria array)", "setting": "HASMC cells; 50 uM Coenzyme Q10", "result": "−1.834"}, {"measurement": "SLC25A13 gene regulation (mitochondria array)", "setting": "HASMC cells; 50 uM Coenzyme Q10", "result": "−1.5"}, {"measurement": "SLC25A19 gene regulation (mitochondria array)", "setting": "HASMC cells; 50 uM Coenzyme Q10", "result": "−1.4257"}, {"measurement": "SLC25A22 gene regulation (mitochondria array)", "setting": "HASMC cells; 50 uM Coenzyme Q10", "result": "−1.9839"}, {"measurement": "TIMM44 gene regulation (mitochondria array)", "setting": "HASMC cells; 50 uM Coenzyme Q10", "result": "−2.3214"}, {"measurement": "TOMM40 gene regulation (mitochondria array)", "setting": "HASMC cells; 50 uM Coenzyme Q10", "result": "−2.0922"}, {"measurement": "TSPO gene regulation (mitochondria array)", "setting": "HASMC cells; 50 uM Coenzyme Q10", "result": "−2.0586"}, {"measurement": "BCL2L1 gene regulation (mitochondria array)", "setting": "HASMC cells; 100 μM Coenzyme Q10", "result": "−2.3001"}, {"measurement": "MFN1 gene regulation (mitochondria array)", "setting": "HASMC cells; 100 μM Coenzyme Q10", "result": "−2.2632"}, {"measurement": "PMAIP1 gene regulation (mitochondria array)", "setting": "HASMC cells; 100 μM Coenzyme Q10", "result": "−4.352"}, {"measurement": "SLC25A1 gene regulation (mitochondria array)", "setting": "HASMC cells; 100 μM Coenzyme Q10", "result": "−3.0001"}, {"measurement": "SLC25A13 gene regulation (mitochondria array)", "setting": "HASMC cells; 100 μM Coenzyme Q10", "result": "−1.5245"}, {"measurement": "SLC25A19 gene regulation (mitochondria array)", "setting": "HASMC cells; 100 μM Coenzyme Q10", "result": "−2.1214"}, {"measurement": "SLC25A22 gene regulation (mitochondria array)", "setting": "HASMC cells; 100 μM Coenzyme Q10", "result": "−10.3747"}, {"measurement": "TIMM44 gene regulation (mitochondria array)", "setting": "HASMC cells; 100 μM Coenzyme Q10", "result": "−1.9931"}, {"measurement": "TOMM40 gene regulation (mitochondria array)", "setting": "HASMC cells; 100 μM Coenzyme Q10", "result": "−2.2684"}, {"measurement": "TSPO gene regulation (mitochondria array)", "setting": "HASMC cells; 100 μM Coenzyme Q10", "result": "−2.3647"}, {"measurement": "GRPEL1 gene regulation (mitochondria array)", "setting": "HK-2 cells; 50 μM Coenzyme Q10", "result": "−2.6512"}, {"measurement": "SLC25A3 gene regulation (mitochondria array)", "setting": "HK-2 cells; 50 μM Coenzyme Q10", "result": "−8.2059"}, {"measurement": "TOMM40 gene regulation (mitochondria array)", "setting": "HK-2 cells; 50 μM Coenzyme Q10", "result": "−1.1567"}, {"measurement": "TSPO gene regulation (mitochondria array)", "setting": "HK-2 cells; 50 μM Coenzyme Q10", "result": "−6.7583"}, {"measurement": "GRPEL1 gene regulation (mitochondria array)", "setting": "HK-2 cells; 100 μM Coenzyme Q10", "result": "−1.933"}, {"measurement": "SLC25A3 gene regulation (mitochondria array)", "setting": "HK-2 cells; 100 μM Coenzyme Q10", "result": "−1.6984"}, {"measurement": "TOMM40 gene regulation (mitochondria array)", "setting": "HK-2 cells; 100 μM Coenzyme Q10", "result": "−1.9509"}, {"measurement": "TSPO gene regulation (mitochondria array)", "setting": "HK-2 cells; 100 μM Coenzyme Q10", "result": "−2.1104"}]}
